Data on 18 compounds can be found in ChEMBL document CHEMBL3085636, “Further optimization of plakortin pharmacophore: structurally simple 4-oxymethyl-1,2-dioxanes with promising antimalarial activity” (Eur J Med Chem, 2013).

Bounds are passed on as bounds.

For test [1], the system named is Plasmodium falciparum. Description: Antimalarial activity against chloroquine-resistant Plasmodium falciparum W2 after 72 hrs by parasite lactate dehydrogenase assay. The format is functional, organism-based. The settings on record: W2, 72 h.
Test [2] relates to Plasmodium falciparum. As to the kind of experiment: Antimalarial activity against chloroquine-sensitive Plasmodium falciparum D10 after 72 hrs by parasite lactate dehydrogenase assay. Format: functional, organism-based. The settings on record: D10, 72 h.

In the case of `COC[C@H]1CC(C)(C)OO[C@@]1(C)OC`, the IC50 in test [1] and in test [2] was more than 30000 nM throughout. Take `CCCC[C@@]1(C)C[C@H](COC)[C@@](CCCC)(OC)OO1`: the IC50 (in general, the midpoint of a concentration-inhibition curve) in test [1] turned out to be 1200 nM; in test [2], 2300 nM. As to `CCCCC1(CCCC)C[C@H](CO)[C@](CCCC)(OC)OO1`, the 50% inhibitory concentration (IC50) in test [1] came out at 1600 nM; in test [2], 4000 nM. Taken in the same sequence, the figures for `COC[C@H]1CC(C)(C)OO[C@]1(C)OC` were more than 30000 nM and more than 30000 nM. In test [1], `CCCCC1(CCCC)C[C@H](COC)[C@](C)(OC)OO1` registered an IC50 of 1700 nM. As to `CCCC[C@@]1(C)C[C@H](COC)[C@](CCCC)(OC)OO1`, the IC50 in test [1] was 700 nM; in test [2], 900 nM.

With `CCCC[C@@]1(C)C[C@H](CO)[C@](CCCC)(OC)OO1`, the IC50 in test [1] came out at 2300 nM; in test [2] it was 6000 nM. In the same order, the values of `CCCC[C@]1(C)C[C@H](COC)[C@](CCCC)(OC)OO1` are 500 nM and 800 nM. On to `CCCC[C@@]1(OC)OOC(C)(C)C[C@@H]1COC`, for which the 50% inhibitory concentration (IC50) in test [1] amounted to 2800 nM; in test [2] it was 8600 nM. `CCCC[C@]1(C)C[C@H](COC)[C@@](CCCC)(OC)OO1`: the IC50 in test [1] amounted to 2000 nM; in test [2], 4300 nM. On to `CCCC[C@@]1(OC)OOC(C)(C)C[C@@H]1CO`, for which the concentration for half-maximal inhibition (IC50) in test [1] came out at 7300 nM; in test [2] it was 17200 nM. Consider `CCCCC1(CCCC)C[C@H](COC)[C@](CCCC)(OC)OO1`, for which, in test [1], the IC50 was found to be 700 nM. As for `CCCCC1(CCCC)C[C@H](CO)[C@@](CCCC)(OC)OO1`, the half-inhibitory concentration (IC50) was 1000 nM in test [1] and 2400 nM in test [2].

For `CCCC[C@]1(OC)OOC(C)(C)C[C@@H]1COC`, the IC50 in test [1] and in test [2] was more than 30000 nM each time. For the compound `CCCC[C@]1(C)C[C@H](CO)[C@@](CCCC)(OC)OO1`, the IC50 was 11200 nM in test [1] and more than 30000 nM in test [2].

The compound `CCCCC1(CCCC)C[C@H](COC)[C@@](C)(OC)OO1` had a 50% inhibitory concentration (IC50) in test [1] of 1500 nM.

Compound `CCCCC1(CCCC)C[C@H](COC)[C@@](CCCC)(OC)OO1` returned an IC50 in test [1] of 1000 nM.

`CCCC[C@]1(C)C[C@H](CO)[C@](CCCC)(OC)OO1`: the 50% inhibitory concentration (IC50) in test [1] was determined as 1900 nM; in test [2], 5400 nM.
